Data published in patent publication US10098895B2, “Treatment of symptoms related to neurodegenerative disorders through pharmacological dermal activation of cranial nerves” (GLIA, LLC, priority 2016, dated 2018).

Tests used:
chronic ocular GVHD [1] = assay: Example 5: second case of chronic ocular GVHD, tear film breakup time by Keratograph 5; assay type: in vivo, human
Protocol: A patient with chronic ocular GVHD complained of eye discomfort, burning, and sticking lids. […] Their first-measured tear film breakup time was 7.4 seconds, with an average breakup time of 11.39 seconds. The patient was treated with a single dose of progesterone 1% to their forehead, followed by retesting of the tear film breakup time after 30 minutes. At that time, the first-measured tear film breakup time was 21.03 seconds, with an average breakup time of 21.35 seconds. The tear meniscus height in both eyes increased over 0.6 mm following the single application of progesterone.

chronic ocular GVHD [2] = assay: Example 6: third case of chronic ocular GVHD, Tearscope examination; assay type: in vivo, human; settings: progesterone 1% to forehead, single dose
Protocol: A patient with chronic ocular GVHD was examined and found to have ocular surface disease in both eyes, including filamentary keratitis. Upon examination by Tearscope there was a lack of tear film production evident in both eyes along with pronounced filaments in the left eye. They were treated with progesterone 1% to their forehead and re-examined 50 minutes later by Tearscope.

CC(=O)[C@H]1CC[C@H]2[C@@H]3CCC4=CC(=O)CC[C@]4(C)[C@H]3CC[C@]12C [progesterone]
duration of increased ocular comfort with each dose (chronic ocular GVHD [1]; progesterone twice a day to forehead): at least 5 hours
increase in tear meniscus height in both eyes (chronic ocular GVHD [1]; single application of progesterone 1% to forehead): over 0.6 mm
first-measured tear film breakup time (chronic ocular GVHD [1]; single dose progesterone 1% to forehead, after 30 minutes, pre-treatment 7.4 seconds): 21.03 s
average tear film breakup time (chronic ocular GVHD [1]; single dose progesterone 1% to forehead, after 30 minutes, pre-treatment 11.39 seconds): 21.35 s
comfort, patient-reported (chronic ocular GVHD [2]): improved comfort
filaments in the left eye (chronic ocular GVHD [2]; 50 minutes later): flushing of the filaments in the left eye
tear film production by Tearscope (chronic ocular GVHD [2]; 50 minutes later): production of tear film in secretions in both eyes
